From the supplement of paper PMC10307832

Assays:
Assay in all cases: relative viability (nuclei count vs DMSO), 5 days (fraction); higher = more cells survive
[1] = compound: C1=CC2=C(C=C(C(=C2N=C1)O)N=NC3=CC4=C(C=C3)C=C(C=C4)S(=O)(=O)O)S(=O)(=O)O + O=C(c1cc(Cc2n[nH]c(=O)c3ccccc23)ccc1F)N1CCN(C(=O)C2CC2)CC1 [Olaparib] (partner 8 µM)
In short: (§1)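 Medians of duplicate plates are given as relative viability. That measure is the nuclei count in treated wells divided by the count in vehicle wells. Counts were taken on 4× images of lung cancer cell lines in 1536-well plates, 5 days after pin-tool dosing the day after seeding with one drug alone or a fixed anchor-drug dose plus five library-drug doses (not always all listed) in √10 steps.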

AT-7519 + Tozasertib = compound: O=C(NC1CCNCC1)c1n[nH]cc1NC(=O)c1c(Cl)cccc1Cl [AT-7519] + Cc1cc(Nc2cc(N3CCN(C)CC3)nc(Sc3ccc(NC(=O)C4CC4)cc3)n2)n[nH]1 [Tozasertib] (partner 0.1 µM)
In short: as §1

[2] = compound: C1=CC2=C(C=C(C(=C2N=C1)O)N=NC3=CC4=C(C=C3)C=C(C=C4)S(=O)(=O)O)S(=O)(=O)O + CS(=O)(=O)CCNCc1ccc(-c2ccc3ncnc(Nc4ccc(OCc5cccc(F)c5)c(Cl)c4)c3c2)o1 [Lapatinib] (partner 2 µM)
In short: as §1

AT-7519 + Decitabine = compound: O=C(NC1CCNCC1)c1n[nH]cc1NC(=O)c1c(Cl)cccc1Cl [AT-7519] + Nc1ncn([C@H]2C[C@H](O)[C@@H](CO)O2)c(=O)n1 [Decitabine] (partner 2 µM)
In short: as §1

Row | Cell Line | relative viability ([1]; first compound 0.08 µM) | relative viability ([1]; first compound 0.253 µM) | relative viability ([1]; first compound 0.8 µM) | relative viability ([1]; first compound 2.53 µM) | relative viability ([1]; first compound 8 µM) | relative viability (AT-7519 + Tozasertib; first compound 0.01 µM) | relative viability (AT-7519 + Tozasertib; first compound 0.03162 µM) | relative viability (AT-7519 + Tozasertib; first compound 0.3162 µM) | relative viability (AT-7519 + Tozasertib; first compound 1 µM) | relative viability ([2]; first compound 0.08 µM) | relative viability ([2]; first compound 0.253 µM) | relative viability ([2]; first compound 0.8 µM) | relative viability ([2]; first compound 2.53 µM) | relative viability ([2]; first compound 8 µM) | relative viability (AT-7519 + Decitabine; first compound 0.01 µM) | relative viability (AT-7519 + Decitabine; first compound 0.03162 µM) | relative viability (AT-7519 + Decitabine; first compound 0.3162 µM) | relative viability (AT-7519 + Decitabine; first compound 1 µM)
1 | SK-LU-1 | 0.603 | 0.475 | 0.399 | 0.567 | 0.512 | 0.306 | 0.364 | 0.254 | 0.264 | 1.06 | 0.88 | 0.943 | 0.881 | 0.959 | 0.602 | 0.653 | 0.569 | 0.501
2 | SK-MES-1 | 0.793 | 0.703 | 0.609 | 0.691 | 0.707 | 0.928 | 1 | 0.814 | 0.243 | 0.482 | 0.444 | 0.468 | 0.464 | 0.546 | 0.349 | 0.348 | 0.361 | 0.35
3 | SW 1573 | 0.574 | 0.413 | 0.523 | 0.483 | 0.29 | 0.151 | 0.151 | 0.143 | 0.125 | 1.05 | 1 | 1.04 | 1.14 | 0.353 | 0.471 | 0.424 | 0.34 | 0.137
